Measured values taken from PubChem BioAssay AID1918945 (Molecular Pharmacology Branch, DTP, NCI, 2023).
pIC50: −log10 of the molar value.

Tested on: 883617-216-R-J1-PDC complex spheroid viability
Assay: Anticancer human tumor 883617-216-R-J1-PDC patient-derived bladder carcinoma cell line growth inhibition
Conditions: for pIC50: curve of first compound; for viability, T/C: stronger effect = lower value
How it was run: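 Multicellular complex spheroids of tumor cells with human endothelial cells (HUVEC) and mesenchymal stem cells; the LSD1 inhibitor iadademstat was combined with standard-of-care or investigational agents. Top concentration at or near clinical Cmax, half-log dilutions; final DMSO ≤0.25%.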

[1] = second compound 0.1 µM, first compound 0.00949 µM
[2] = second compound 0.1 µM, first compound 0.03 µM
[3] = second compound 0.1 µM, first compound 0.0949 µM
[4] = second compound 0.1 µM, first compound 0.3 µM
[5] = second compound 0.1 µM, first compound 0.949 µM
[6] = second compound 0.1 µM, first compound 3 µM
[7] = second compound 0.316 µM, first compound 0.00949 µM
[8] = second compound 0.316 µM, first compound 0.03 µM
[9] = second compound 0.316 µM, first compound 0.0949 µM
[10] = second compound 0.316 µM, first compound 0.3 µM
[11] = second compound 0.316 µM, first compound 0.949 µM
[12] = second compound 0.316 µM, first compound 3 µM
[13] = second compound 1 µM, first compound 0.00949 µM
[14] = second compound 1 µM, first compound 0.03 µM
[15] = second compound 1 µM, first compound 0.0949 µM
[16] = second compound 1 µM, first compound 0.3 µM
[17] = second compound 1 µM, first compound 0.949 µM
[18] = second compound 1 µM, first compound 3 µM
[19] = second compound 3.16 µM, first compound 0.00949 µM
[20] = second compound 3.16 µM, first compound 0.03 µM
[21] = second compound 3.16 µM, first compound 0.0949 µM
[22] = second compound 3.16 µM, first compound 0.3 µM
[23] = second compound 3.16 µM, first compound 0.949 µM
[24] = second compound 3.16 µM, first compound 3 µM
[25] = second compound 10 µM, first compound 0.00949 µM
[26] = second compound 10 µM, first compound 0.03 µM
[27] = second compound 10 µM, first compound 0.0949 µM
[28] = second compound 10 µM, first compound 0.3 µM
[29] = second compound 10 µM, first compound 0.949 µM
[30] = second compound 10 µM, first compound 3 µM
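Further: exposure lasted seven days after three days of spheroid growth.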
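Wherever viability, T/C is given: 100% = DMSO vehicle control luminescence.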

SMILES | pIC50 (second compound 0.1 µM) | pIC50 (second compound 0.316 µM) | pIC50 (second compound 1 µM) | pIC50 (second compound 3.16 µM) | pIC50 (second compound 10 µM) | viability, T/C [1] | viability, T/C [2] | viability, T/C [3] | viability, T/C [4] | viability, T/C [5] | viability, T/C [6] | viability, T/C [7] | viability, T/C [8] | viability, T/C [9] | viability, T/C [10] | viability, T/C [11] | viability, T/C [12] | viability, T/C [13] | viability, T/C [14] | viability, T/C [15] | also measured
NS(=O)(=O)OCC1CC(n2ccc3c(NC4CCc5ccccc54)ncnc32)CC1O (stereo not given) + NC1CC1c1ccc(-c2cccc(O)c2)cc1 | 6.66 | 6.64 | 6.66 | 6.69 | 6.81 | 123% | 144% | 112% | 27.5% | 10.8% | 8.35% | 124% | 150% | 127% | 26.7% | 12.9% | 8.2% | 135% | 159% | 111% | viability, T/C [16]: 28.3%; viability, T/C [17]: 13%; viability, T/C [18]: 10.2%; viability, T/C [19]: 122%; viability, T/C [20]: 157%; viability, T/C [21]: 94.5%; viability, T/C [22]: 29.7%; viability, T/C [23]: 10.5%; viability, T/C [24]: 9.87%; viability, T/C [25]: 126%; viability, T/C [26]: 139%; viability, T/C [27]: 71.8%; viability, T/C [28]: 27%; viability, T/C [29]: 12.9%; viability, T/C [30]: 9.23%
Nc1ccccc1NC(=O)c1ccc(CNC(=O)OCc2cccnc2)cc1 + NC1CC1c1ccc(-c2cccc(O)c2)cc1 | 6.72 | 6.74 | 6.75 | 6.84 | 6.99 | 103% | 106% | 64.8% | 36.2% | 19.2% | 0.5% | 110% | 96% | 64.8% | 36.9% | 15.8% | 0.25% | 116% | 96.6% | 62.7% | viability, T/C [16]: 39.1%; viability, T/C [17]: 12.6%; viability, T/C [18]: 0.26%; viability, T/C [19]: 115%; viability, T/C [20]: 91.2%; viability, T/C [21]: 57.3%; viability, T/C [22]: 35.6%; viability, T/C [23]: 11.9%; viability, T/C [24]: 0.25%; viability, T/C [25]: 91.5%; viability, T/C [26]: 80.7%; viability, T/C [27]: 43.5%; viability, T/C [28]: 33.9%; viability, T/C [29]: 13.6%; viability, T/C [30]: 0.23%
O=C(C=Cc1cccc(S(=O)(=O)Nc2ccccc2)c1)NO + NC1CC1c1ccc(-c2cccc(O)c2)cc1 | 7.05 | 7.05 | 7.16 | 7.22 | 7.44 | 105% | 76.1% | 44.8% | 30.9% | 12.9% | 0.56% | 116% | 83.8% | 42.7% | 28.7% | 12% | 0.43% | 106% | 72.3% | 38.5% | viability, T/C [16]: 25.8%; viability, T/C [17]: 11.9%; viability, T/C [18]: 0.47%; viability, T/C [19]: 105%; viability, T/C [20]: 67.7%; viability, T/C [21]: 35.5%; viability, T/C [22]: 23.5%; viability, T/C [23]: 10.8%; viability, T/C [24]: 0.43%; viability, T/C [25]: 79.6%; viability, T/C [26]: 53.2%; viability, T/C [27]: 30.7%; viability, T/C [28]: 23.4%; viability, T/C [29]: 11.6%; viability, T/C [30]: 0.29%
